Experimental data published in PubChem BioAssay (NCI).
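A five-concentration, 48-hour dose response in 96-well plates underlies each endpoint, interpolated linearly between surrounding concentrations. GI50 is the concentration that inhibits growth by half. TGI: concentration producing complete growth inhibition.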

Key:
Test in all cases: NCI tumour cell line growth inhibition, 48 h
A498 renal = tested on: A498 renal
TK-10 renal = tested on: TK-10 renal
MALME-3M melanoma = tested on: MALME-3M melanoma
UACC-257 melanoma = tested on: UACC-257 melanoma
ACHN renal = tested on: ACHN renal
HL-60(TB) leukemia = tested on: HL-60(TB) leukemia
UO-31 renal = tested on: UO-31 renal
K-562 leukemia = tested on: K-562 leukemia
NCI/ADR-RES ovarian = tested on: NCI/ADR-RES ovarian
HS 578T breast = tested on: HS 578T breast
SK-OV-3 ovarian = tested on: SK-OV-3 ovarian
T-47D breast = tested on: T-47D breast

SMILES: NC(N)=Nc1ccc(Nc2cccc(Nc3ccc(Cl)c(C(F)(F)F)c3)c2)cn1
- GI50 (A498 renal): 1.69 µM
- TGI (A498 renal): 4.72 µM
- GI50 (TK-10 renal): 2.77 µM
- TGI (TK-10 renal): 7.58 µM
- GI50 (MALME-3M melanoma): 2.01 µM
- TGI (MALME-3M melanoma): 5.36 µM
- GI50 (UACC-257 melanoma): 2.39 µM
- TGI (UACC-257 melanoma): 6.53 µM
- GI50 (ACHN renal): 3.58 µM
- TGI (ACHN renal): 17.5 µM
- GI50 (HL-60(TB) leukemia): 2.31 µM
- TGI (HL-60(TB) leukemia): 5.74 µM
- GI50 (UO-31 renal): 4.33 µM
- TGI (UO-31 renal): 38.3 µM
- GI50 (K-562 leukemia): 2.54 µM
- TGI (K-562 leukemia): > 100 µM
- GI50 (NCI/ADR-RES ovarian): 21.6 µM
- TGI (NCI/ADR-RES ovarian): 93.4 µM
- GI50 (HS 578T breast): 2.04 µM
- TGI (HS 578T breast): 4.94 µM
- GI50 (SK-OV-3 ovarian): 2.81 µM
- TGI (SK-OV-3 ovarian): 6.91 µM
- GI50 (T-47D breast): 1.85 µM
- TGI (T-47D breast): 4.87 µM
